EP4273147A1, “SUBSTITUTED SPIROLACTAMS, SALTS THEREOF AND THEIR USE AS HERBICIDALLY ACTIVE SUBSTANCES” (Bayer Aktiengesellschaft, priority 2022, dated 2023)

Assays:
ALOMY [1] = test: Herbicidal post-emergence action, section E (Table E2); type: in vivo, Alopecurus myosuroides; conditions: application rate 320 g/ha; assessed visually after ca. 3 weeks
Text: (§1) 2 to 3 weeks after sowing, the test plants were sprayed in the single-leaf stage.

LOLRI = test: Herbicidal pre-emergence action, section C (Table C7); type: in vivo, Lolium rigidum; conditions: application rate 320 g/ha; visual grading after ca. 3 weeks
ECHCG [2] = test: Herbicidal pre-emergence action, section C (Table C6); type: in vivo, Echinochloa crus-galli; conditions: application rate 320 g/ha; visual grading after ca. 3 weeks
DIGSA = test: Herbicidal pre-emergence action, section C (Table C5); type: in vivo, Digitaria sanguinalis; conditions: application rate 80 g/ha; visual grading after ca. 3 weeks
ABUTH = test: Herbicidal post-emergence action, section E (Table E1); type: in vivo, Abutilon theophrasti; conditions: application rate 320 g/ha; assessed visually after ca. 3 weeks
Text: as §1

TRZAS = test: Post-emergence effects on crop plants (Table F2); type: in vivo, Triticum aestivum; conditions: application rate 320 g/ha, crop plant TRZAS
Text: as §1

ZEAMX = test: Post-emergence effects on crop plants (Table F1); type: in vivo, Zea mays; conditions: application rate 320 g/ha, crop plant ZEAMX
Text: as §1

ALOMY [3] = test: Herbicidal pre-emergence action, section C (Table C2); type: in vivo, Alopecurus myosuroides; conditions: application rate 320 g/ha; visual grading after ca. 3 weeks
Text: (§2) Seeds of mono- and dicotyledonous weed plants and crop plants were sown, in plastic or organic planting pots, in sandy loam and covered with soil. The compounds according to the invention, formulated in the form of wettable powders (WP) or as emulsifiable concentrates (EC), were applied to the surface of the covering soil as aqueous suspension or emulsion, with the addition of 0.5% of an additive, at an application rate of 600 1 of water/ha (converted). Following treatment, the pots were placed in a greenhouse and kept under optimum growth conditions for the test plants.

BRSNW = test: Post-emergence effects on crop plants (Table F5); type: in vivo, Brassica napus; conditions: application rate 80 g/ha, crop plant BRSNW
Text: as §1

ECHCG [4] = test: Herbicidal post-emergence action, section E (Table E5); type: in vivo, Echinochloa crus-galli; conditions: application rate 320 g/ha; assessed visually after ca. 3 weeks
Text: as §1

SETVI = test: Herbicidal pre-emergence action, section C (Table C10); type: in vivo, Setaria viridis; conditions: application rate 80 g/ha; visual grading after ca. 3 weeks
VIOTR [5] = test: Herbicidal pre-emergence action, section C (Table C12); type: in vivo, Viola tricolor; conditions: application rate 38 g/ha (so in the source); visual grading after ca. 3 weeks
VIOTR [6] = test: Herbicidal post-emergence action, section E (Table E10); type: in vivo, Viola tricolor; conditions: application rate 320 g/ha; assessed visually after ca. 3 weeks
Text: as §1

ORYZA = test: Post-emergence effects on crop plants (Table F3); type: in vivo, Oryza sativa; conditions: application rate 80 g/ha, crop plant ORYZA
Text: as §1

POLCO = test: Herbicidal pre-emergence action, section C (Table C9); type: in vivo, Polygonum convolvulus; conditions: application rate 80 g/ha; visual grading after ca. 3 weeks
GLXMA = test: Post-emergence effects on crop plants (Table F4); type: in vivo, Glycine max; conditions: application rate 80 g/ha, crop plant GLXMA
Text: as §1

MATIN = test: Herbicidal pre-emergence action, section C (Table C8); type: in vivo, Matricaria inodora; conditions: application rate 320 g/ha; visual grading after ca. 3 weeks
VERPE [7] = test: Herbicidal post-emergence action, section E (Table E9); type: in vivo, Veronica persica; conditions: application rate 320 g/ha; assessed visually after ca. 3 weeks
Text: as §1

VERPE [8] = test: Herbicidal pre-emergence action, section C (Table C11); type: in vivo, Veronica persica; conditions: application rate 320 g/ha; visual grading after ca. 3 weeks
AMARE = test: Herbicidal pre-emergence action, section C (Table C3); type: in vivo, Amaranthus retroflexus; conditions: application rate 320 g/ha; visual grading after ca. 3 weeks
Text: as §2

O=C1N(Cc2c(F)cccc2F)CCCC12CCCN(Cc1c(F)cccc1F)C2=O (racemic) [I-006, 2,8-bis[(2,6-difluorophenyl)methyl]-2,8-diazaspiro[5.5]undecane-1,7-dione]
post-emergence activity against ALOMY (ALOMY [1]): 90%
pre-emergence activity against LOLRI (LOLRI): 100%
pre-emergence activity against ECHCG (ECHCG [2]): 100%
pre-emergence activity against DIGSA (DIGSA): 100%
post-emergence activity against ABUTH (ABUTH): 80%
post-emergence activity against TRZAS (TRZAS): 10%
post-emergence activity against ZEAMX (ZEAMX): 20%
pre-emergence activity against ALOMY (ALOMY [3]): 100%
post-emergence activity against BRSNW (BRSNW): 20%
post-emergence activity against ECHCG (ECHCG [4]): 80%
pre-emergence activity against SETVI (SETVI): 100%
pre-emergence activity against VIOTR (VIOTR [5]): 90%
post-emergence activity against VIOTR (VIOTR [6]): 80%
post-emergence activity against ORYZA (ORYZA): 10%
pre-emergence activity against POLCO (POLCO): 100%
post-emergence activity against GLXMA (GLXMA): 20%
pre-emergence activity against MATIN (MATIN): 80%
post-emergence activity against VERPE (VERPE [7]): 80%
pre-emergence activity against VERPE (VERPE [8]): 90%
pre-emergence activity against AMARE (AMARE): 90%
